Results reported in patent US20200261534A1, “NEW TREATMENTS OF MULTIPLE MYELOMA” (priority 2017, published 2020).
Like-named read-outs stand apart in the source and are kept apart here. Starred links: 1 amine or outer side, 2 acyl side, 3 side chain; linkers in the order of their positions; H or OH if unused. Positions of bridges follow the written chain, without caps; N, C: chain ends. Non-standard residues stand in square brackets, D forms with d. Residues, ends and D or L forms follow the SMILES beside them. ξ: configuration not given here. Biphenyl(4,4'-CH2)2 = c1cc(-c2ccc(C[*:2])cc2)ccc1C[*:1]; ξαMeNle(6-ylidene) = CC(CCCC=[*:3])(N[*:1])C(=O)[*:2]; X1 = CC(CCCCCCC=[*:3])(N[*:1])C(=O)[*:2]; Octanediyl(1,8) = C(CCCC[*:2])CCC[*:1]; ξC = NC(CS)C(=O)O

Key:
Format in all cases: cell-based
[1] = system: NCI-H128, epithelial (small cell lung cancer); assay: MTT viability assay, NCI-H128
Experimental: NCI-[…], epithelial (small cell lung cancer), ATCC: HTB-120TM […] During the amplification step and the assays adherent cells were rinsed with DPBS (Dulbecco's Phosphate Buffered Saline, Sigma D1283) three times and afterward treated for 5 minutes with trypsin ([…]) (Gibco-BRL, 15400054) in solution of DPBS at 37° C., and, once detached, transferred in the culturing medium. No-adherent cells were centrifuged and transferred in the culturing medium. Cells were counted in a Neubauer chamber after labelling with Tripan-Blue. […] Cells were seeded at a density of 10,000 cells/well in 100 μl of medium in 96 well plates. […] Controls are the untreated cells. Each experiment was performed in triplicate. Cells were incubated with the compounds at the indicated concentrations during 24-72 h in incubator under CO2 atmosphere at 37° C. […] Stock solution of MTT (475989 Calbiochem) was 5 mg/ml in PBS. 1×.10 μl/well of MTT solution were added and the plate was incubated for 3-4 hr. […] Plates were incubated for 16 h at room temperature under orbital shaking. Absorbance at 570 nm was finally measured. […] The dose/response curve was fitted through the sigmoidal equation dose-response (variable slope) and the IC50 values were calculated as follow: […]

[2] = system: MM144, lymphoblast (myeloma); assay: MTT viability assay, MM144; settings: 24-72 h, Table 7, read-out: IC50 values in μM for S09
Experimental: MM144, lymphoblast (myeloma), University of Salamanca
(§1) All cell lines were cultured in incubator at 37° C. in RPMI-1640 (Sigma R8758) medium with 10% of fetal bovine serum inactivated (FBS) and 2 mM glutamine (Sigma G7513). During the amplification step cells were centrifuged and transferred into the culturing medium. Cells were counted in a Neubauer chamber after labelling with Tripan-Blue.
(§2) Cells were seeded at a density of 10000 cells/well in 100 μl of medium in 96 well plates. After 24 h, the compounds to be tested were added to calculate the dose/response curve at the starting concentration of 100 μM with serial dilutions (1:1). Controls are the untreated cells. Each experiment was performed in triplicate.
(§3) Cells were incubated with the peptidomimetic compound (S09) at the indicated concentrations during 24-72 h in incubator under CO2 atmosphere at 37° C. Then, cell viability was measured by means of MTT (3-(4,5-dimethylthiazol-2-yl)-2,5-diphenyltetrazolium bromide) assay. Stock solution of MTT (475989 Calbiochem) was 5 mg/ml in PBS. […] Absorbance at 570 nm was finally measured. […]
(§4) Data analysis was performed calculating the percentage of cell viability normalized vs. the values of negative control, which was considered equal to 100%. The dose/response curve was fitted through the sigmoidal equation dose-response (variable slope) and the IC50 values were calculated as follow: […]

[3] = system: U266, lymphoblast (myeloma); assay: MTT viability assay, U266; settings: 24-72 h, Table 7, read-out: IC50 values in μM for S09
Experimental: U266, lymphoblast (myeloma), ATCC® TIB196™
as §1, §2, §3, §4

[4] = system: BJ, fibroblast (normal skin); assay: MTT viability assay, BJ; settings: incubation 24-72 h, Table 3
Experimental: BJ, fibroblast (normal skin), ATCC® CRL-2522™
Cell lines A549, MCF-7 and RAMOS were cultured in incubator under CO2 (6%) at 37° C. in DMEM high glucose (Dulbecco's Modified Eagle Solution, Gibco-BRL 31966-21) medium with 10% fetal bovine serum inactivated (FBS) (Gibco-BRL 10106-169). Cell lines HL-60 and MM.1S were cultured in incubator at 37° C. in RPMI-1640 (Sigma R8758) medium with 10% of fetal bovine serum inactivated (FBS) and 2 mM glutamine (Sigma G7513). Cell lines BJ were cultured in incubator under CO2 (6%) at 37° C. in Eagle's Minimum Essential Medium (Sigma, M-2279) with 10% fetal bovine serum inactivated (FBS) (Gibco-BRL 10106-169).
During the amplification step and the assays adherent cells were rinsed with DPBS (Dulbecco's Phosphate Buffered Saline, Sigma D1283) three times and afterward treated for 5 minutes with trypsin ([…]) (Gibco-BRL, 15400054) in solution of DPBS at 37° C., and, once detached, transferred in the culturing medium. […] Cells were counted in a Neubauer chamber after labelling with Tripan-Blue. […]
as §3, with “compounds” for “peptidomimetic compound (S09)”, “assay.” for “assay. Stock solution of MTT (475989 Calbiochem) was 5 mg/ml in PBS.”

[5] = system: OPM-2, lymphoblast (myeloma); assay: MTT viability assay, OPM-2; settings: OPM2, 24-72 h, Table 7, read-out: IC50 values in μM for S09
Experimental: OPM-2, lymphoblast (myeloma), DSMZ No. ACC50
as §1, §2, §3, §4

[6] = system: NCI-H929, lymphoblast (myeloma); assay: MTT viability assay, NCI-H929; settings: 24-72 h, Table 7, read-out: IC50 values in μM for S09
Experimental: NCI-H929, lymphoblast (myeloma), ATCC® CRL-9068™
as §1, §2, §3, §4

Row | SMILES | IC50 [1] [µM] | IC50 [2] [µM] | IC50 [3] [µM] | IC50 [4] [µM] | IC50 [5] [µM] | IC50 ([1]; NCI-H128, MTT, 24-72 h, Table 12, read-out: IC50 values) [µM] | IC50 [6] [µM]
1 | CC[C@H](C)[C@H](NC(=O)[C@H](Cc1ccc(O)cc1)NC(=O)[C@H](C)NC(=O)[C@@H]1CSCc2ccc(cc2)-c2ccc(cc2)CSC[C@H](NC(=O)[C@H](CCCCN)NC(=O)[C@@H]2CCCN2C(=O)[C@H](C)N)C(=O)N[C@@H](C(C)C)C(=O)N[C@@H]([C@@H](C)CC)C(=O)N[C@@H](CC(C)C)C(=O)N[C@@H](CCCCN)C(=O)N[C@@H](CCCCN)C(=O)N[C@@H](C)C(=O)N1)C(=O)N[C@@H](CC(C)C)C(=O)N[C@@H](CO)C(=O)O [IDP-P1708161] (H-APKCVILKKACAYILS-OH; linker 4-11 via Biphenyl(4,4'-CH2)2; N-terminus and C-terminus assumed) | 14 ± 1 |  |  |  |  |  | 
2 | CC[C@H](C)[C@H](NC(=O)[C@H](Cc1ccc(O)cc1)NC(=O)[C@H](C)NC(=O)C1(C)CCCC=CCCCCCCC(C)(NC(=O)[C@H](CCCCN)NC(=O)[C@@H]2CCCN2C(=O)[C@H](C)N)C(=O)N[C@@H](C(C)C)C(=O)N[C@@H]([C@@H](C)CC)C(=O)N[C@@H](CC(C)C)C(=O)N[C@@H](CCCCN)C(=O)N[C@@H](CCCCN)C(=O)N[C@@H](C)C(=O)N1)C(=O)N[C@@H](CC(C)C)C(=O)N[C@@H](CO)C(=O)O (some centres unmarked) [S09, APKXVILKKAXAYILS—OH] (H-APK[X1]VILKKA[ξαMeNle(6-ylidene)]AYILS-OH; staple 4-11; N-terminus assumed) |  | 6.8 | 7.5 | 47 ± 0.2 | 4.8 | 3 ± 1 | 3.6
3 | CC[C@H](C)[C@H](NC(=O)[C@H](Cc1ccc(O)cc1)NC(=O)[C@H](C)NC(=O)C1CSCCCCCCCCSCC(NC(=O)[C@H](CCCCN)NC(=O)[C@@H]2CCCN2C(=O)[C@H](C)N)C(=O)N[C@@H](C(C)C)C(=O)N[C@@H]([C@@H](C)CC)C(=O)N[C@@H](CC(C)C)C(=O)N[C@@H](CCCCN)C(=O)N[C@@H](CCCCN)C(=O)N[C@@H](C)C(=O)N1)C(=O)N[C@@H](CC(C)C)C(=O)N[C@@H](CO)C(=O)O (some centres unmarked) [IDP-P1708160] (H-APK[ξC]VILKKA[ξC]AYILS-OH; linker 4-11 via Octanediyl(1,8); N-terminus and C-terminus assumed) | 16 ± 1 |  |  |  |  |  | 
